Source: publication PMC3285636, “Identification by Virtual Screening and In Vitro Testing of Human DOPA Decarboxylase Inhibitors” (PLoS ONE, 2012)
Entries after “also recorded” stand apart in the source; their conditions may differ. Where two headings read alike, the source gives them in different places. Marks after values point to notes of the source that are not given here.

What was measured:
human DDC [1] = target: T1, human DDC (Homo sapiens, UniProt P20711); assay: Assay of the inhibitory activity: spectrophotometric measurement of dopamine production by DDC; type: biochemical; settings: for IC50: 0.1 mM L-Dopa, pH 7.4, 25°C, 9 concentrations in duplicate; for BE (binding efficiency): binding energy per unit of mass, from Ki and molecular weight in kDa; for Inhibition profile: type of inhibition from Lineweaver–Burk plots; for Ki′: mixed or noncompetitive inhibition
T1 construct: made in house
T1 sequence (P20711 1-480): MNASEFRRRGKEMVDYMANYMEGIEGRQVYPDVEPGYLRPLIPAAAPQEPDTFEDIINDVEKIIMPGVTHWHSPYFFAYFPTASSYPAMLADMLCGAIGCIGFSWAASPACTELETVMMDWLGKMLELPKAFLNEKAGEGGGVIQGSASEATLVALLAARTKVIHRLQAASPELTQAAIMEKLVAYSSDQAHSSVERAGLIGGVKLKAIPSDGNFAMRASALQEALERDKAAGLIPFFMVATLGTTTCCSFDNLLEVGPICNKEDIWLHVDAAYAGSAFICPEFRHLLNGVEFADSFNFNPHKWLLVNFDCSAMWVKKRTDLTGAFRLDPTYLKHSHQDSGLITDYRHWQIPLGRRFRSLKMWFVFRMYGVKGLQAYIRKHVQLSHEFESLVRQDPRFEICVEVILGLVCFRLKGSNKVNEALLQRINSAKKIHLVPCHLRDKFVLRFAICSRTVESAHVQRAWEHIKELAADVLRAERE
Protocol: DDC activity was determined by measuring the production of dopamine with a spectrophotometric assay outlined by Sherald et al. and modified by Charteris and John. The reaction was carried out in 0.1 M potassium phosphate buffer pH 7.4 at 25°C for 1 min and stopped by inactivation of the enzyme at 100°C for 90 sec. The inhibitory assay was performed by measuring the decarboxylase activity of DDC with 50 nM enzyme, 0.1 mM L-Dopa, and 10 µM PLP in the presence and in the absence of a fixed amount of each compound. Various amounts of dimethyl sulphoxyde (DMSO) were necessary to solubilize the compounds in 100 mM potassium phosphate buffer, pH 7.4. […] Compounds were evaluated at 9 concentrations, and each in duplicate. IC50 values were derived by nolinear regression analysis. The related inhibition type of the compounds on human DDC was identified from Lineweaver–Burk plots, and Ki and/or Ki′ values for the inhibitors tested were calculated by the software Origin 7.0.

human DDC [2] = target: T1, human DDC; assay: Enzyme-ligand equilibrium dissociation constant from visible CD signal changes of DDC; type: binding; settings: change of 420 nm or 335 nm CD band, 100 mM potassium phosphate pH 7.4
Protocol: The equilibrium dissociation constant for each tested compound from DDC was determined by monitoring the decrease in the 420 nm CD signal of DDC (7 µM) in the presence of various ligand concentrations in 100 mM potassium phosphate buffer, pH 7.4. In any case, the maximun DMSO concentration in the mixture was kept lower than 1% (v/v). The KD values were obtained from the fitting of the data to the equation [drawing 3] where [E]t and [L]t represent the total concentrations of DDC dimer and ligand, respectively, Y refers to the visible CD signal change at 420 nm at the ligand concentration [L], and Ymax refers to the CD signal when all enzyme molecules are complexed with the ligand. CD measurements were performed with a Jasco J-710 spectropolarimeter using quartz cuvettes with 1 cm path length.

[3] = 50 nM enzyme, 10 µM PLP, read-out: IC50
[4] = 50 nM enzyme, L-Dopa, 10 µM PLP, 0.1 M potassium phosphate pH 7.4, 25°C, from Lineweaver–Burk plots, read-out: Ki
[5] = at a concentration in which solubility of the compound was maximum
[6] = 0.1 M potassium phosphate pH 7.4, 25°C, from Lineweaver–Burk plots
[7] = Ki, competitive inhibition, Table 4, third screening
[8] = competitive inhibition, Table 4, third screening, read-out: Ki

Row | IC50 (human DDC [1]; [3]) [µM] | Ki (human DDC [1]; [4]) [µM] | BE (binding efficiency) (human DDC [1]) | Inhibition profile (human DDC [1]) | Kd (human DDC [2]) [µM] | SMILES | further results
1 | – | 63.2 ± 3.1 | 11.5 | competitive inhibitors | – | Oc1ccc(/C=N/n2c(S)nnc2-c2ccc(Cl)cc2Cl)cc1 [Compound 18] | –
2 | 6.3 ± 0.9 | 2.3 ± 0.4 | 16.3 | competitive inhibitors | 2.5 ± 0.7 | Oc1ccc(/C=N/n2c(S)nnc2-c2ccc(Cl)cc2)cc1O [Compound 21] | –
3 | 6.7 ± 0.9 | 15.1 ± 0.1 | – | mixed mode | – | Oc1ccc(/C=N/n2c(S)nnc2-c2ccccc2)c(O)c1O [Compound 22] | Ki′ (human DDC [1]; [6]): 46.7 ± 0.5 µM
4 | 77.1 ± 2.4 | 120 ± 14 | 11.9 | competitive inhibitors | – | Oc1cccc(/C=N/n2c(S)nnc2-c2ccc(Cl)cc2)c1 [Compound 24] | –
5 | 15.2 ± 1.3 | 3.7 ± 0.2 | 15.7 | competitive inhibitors | 2.4 ± 0.1 | Oc1ccc(/C=N/n2c(S)nnc2-c2ccccc2Cl)cc1O [Compound 25] | –
6 | – | 24.8 ± 1.2 | – | mixed mode | – | Oc1ccc(C=Nn2c(S)nnc2-c2ccccc2)c(O)c1 [Compound 27] | Ki′ (human DDC [1]; [6]): 43.1 ± 1.9 µM
7 | 29.8 ± 4.8 | 12.2 ± 0.4 | 12.9 | competitive inhibitors | 25.1 ± 3.5 | Oc1ccc(/C=N/n2c(S)nnc2-c2ccc(Cl)cc2Cl)cc1O [Compound 30] | –
8 | – | 16.5 ± 0.8 | – | mixed mode | – | Oc1ccccc1/C=N/n1c(S)nnc1-c1ccc(F)cc1 [Compound 33] | Ki′ (human DDC [1]; [6]): 325 ± 39 µM
9 | 11 ± 0.8 | 10.4 ± 3.3 | 15.8 | competitive inhibitors | 7.1 ± 0.9 | Oc1ccc(/C=N/n2c(S)nnc2-c2ccc(F)cc2)cc1O [Compound 34] | –
10 | 2.4 ± 0.3 | 1.8 ± 1.1 | 18.4 | competitive inhibitors | 1.5 ± 0.2 | Oc1ccc(/C=N/n2c(S)nnc2-c2ccccc2)cc1O [Compound 37] | –
11 | 27.5 ± 3.3 | – | 19,9 | – | 9.1 ± 0.3 | Cc1nnc(S)n1/N=C/c1ccc(O)c(O)c1 [Compound 39] | Ki (human DDC [1]; [8]): 10.8 ± 0.8 µM
12 | 3.5 ± 0.2 | – | 19,4 | – | – | Oc1ccc(/C=N/n2c(S)nnc2-c2ccco2)cc1O [Compound 40] | Ki (human DDC [1]; [7]): 1.4 ± 0.1 µM
13 | 1.7 ± 0.2 | – | 18,4 | – | – | COc1ccc(-c2nnc(S)n2/N=C/c2ccc(O)c(O)c2)cc1 [Compound 44] | Ki (human DDC [1]; [7]): 0.5 ± 0.1 µM
14 | 3.5 ± 0.3 | – | 17,4 | – | – | Oc1ccc(/C=N/n2c(S)nnc2COc2ccccc2)cc1O [Compound 46] | Ki (human DDC [1]; [8]): 1.1 ± 0.1 µM
15 | > 200 | – | – | – | – | COc1ccccc1-c1nnc(S)n1/N=C/c1ccc(O)c(O)c1 [Compound 47] | Inhibition of DDC activity (human DDC [1]; at 200 µM (the concentration of its maximum solubility)): does not inhibit DDC activity

Further lines, the compound ahead of its results:

Row | SMILES | IC50 (human DDC [1]; [3]) [µM] | Ki (human DDC [1]; [4]) [µM] | BE (binding efficiency) (human DDC [1]) | Inhibition profile (human DDC [1]) | Kd (human DDC [2]) [µM] | further results
16 | O=C(O)c1cccc(NS(=O)(=O)c2ccc3nnn(O)c3c2)c1 [Compound 1] | 570 ± 66 | 106 ± 7 | 11.9 | competitive inhibition | 240 ± 68 | Inhibition of DDC activity (human DDC [1]; [5]): ≥ 70%
17 | O=S(=O)(c1ccc2nnn(O)c2c1)N1CCCCC1 [Compound 2] | 1500 ± 220 | 390 ± 30 | 12.1 | competitive inhibition | 516 ± 126 | Inhibition of DDC activity (human DDC [1]; [5]): ≥ 70%
18 | CCOc1cc(-c2ccc(O)c(O)c2)cc(=O)c2c(C)oc(C)c12 [Compound 6] | – | – | – | – | – | Inhibition of DDC activity (human DDC [1]; [5]): do not inhibit DDC activity
19 | Cc1cccc(NC(=O)COC(=O)c2[nH]c(=O)[nH]c(=O)c2N)c1C [Compound 8] | – | – | – | – | – | Inhibition of DDC activity (human DDC [1]; [5]): do not inhibit DDC activity
20 | O=C1C(=Cc2ccc(O)c(O)c2)C(=O)c2ccccc21 [Compound 10] | 12.8 ± 0.4 | 6.03 ± 0.55 | – | mixed inhibition | – | Inhibition of DDC activity (human DDC [1]; [5]): ≥ 70%; Ki′ (human DDC [1]; [6]): 23.1 ± 1.1 µM
21 | Oc1cccc(/C=N/n2c(S)nnc2-c2ccc(Cl)cc2Cl)c1O [Compound 11] | 27.3 ± 1.6 | 10.7 ± 2.4 | 13.0 | competitive inhibition | 16.1 ± 2.1 | Inhibition of DDC activity (human DDC [1]; [5]): ≥ 70%
22 | Nc1c(S(=O)(=O)c2ccccc2)c2nc3ccccc3nc2n1/N=C/c1ccc(O)c(O)c1 [Compound 12] | – | – | – | noncompetitive inhibition | – | Inhibition of DDC activity (human DDC [1]; [5]): ~55%; Ki′ (human DDC [1]; [6]): 19.4±1.4^b µM
23 | CC(C)C(NC(=O)Cc1n[nH]c(=O)c2ccccc12)c1nc2ccccc2[nH]1 (stereo not shown) [Compound 13] | – | – | – | – | – | Inhibition of DDC activity (human DDC [1]; [5]): do not inhibit DDC activity
24 | O=C1Nc2ccc(S(=O)(=O)N3CCCCC3)c3cccc1c23 [Compound 15] | – | – | – | – | – | Inhibition of DDC activity (human DDC [1]; [5]): do not inhibit DDC activity
25 | O=C(O)c1ccccc1NS(=O)(=O)c1ccc2[nH]c(=O)[nH]c2c1 [Compound 16] | – | 59.8 ± 0.3 | 12.7 | competitive inhibitors | – | –
26 | O=C(Nc1ccccc1)c1ccccc1NS(=O)(=O)c1ccc2[nH]c(=O)[nH]c2c1 [Compound 17] | 16.8 ± 1.7 | 4.4 ± 1.4 | 13.1 | competitive inhibitors | 17.5 ± 5.1 | increase of affinity (human DDC [1]; compared with compound 5): about 13 fold
27 | Oc1ccccc1/C=N/n1c(S)nnc1-c1ccc(Cl)cc1Cl [Compound 19] | – | – | – | – | – | DDC inhibitory activity in words (human DDC [1]; structure-activity discussion): poorly active
28 | Oc1cccc(/C=N/n2c(S)nnc2-c2ccc(Cl)cc2Cl)c1 [Compound 20] | – | 36.8 ± 4.2 | 12.1 | competitive inhibitors | 28.2 ± 3.2 | –
29 | Oc1cccc(/C=N/n2c(S)nnc2-c2ccccc2)c1O [Compound 23] | – | < 10 | 16.8 | competitive inhibitors | 4.7 ± 0.5 | IC50 (human DDC [1]; 50 nM enzyme, 10 µM PLP): 16.6 ± 0.3 µM; Ki (human DDC [1]; Ki, 50 nM enzyme, L-Dopa, 10 µM PLP, 0.1 M potassium phosphate pH 7.4, 25°C, from Lineweaver–Burk plots): 5.7 ± 0.1 µM
30 | Oc1ccc(C=Nn2c(S)nnc2-c2ccc(Cl)cc2)c(O)c1 [Compound 26] | – | – | 12.1 | noncompetitive inhibitors; also recorded: Nonconmpetitive | – | Ki′ (human DDC [1]; [6]): 65.2±−4.1^b µM
31 | Oc1cccc(/C=N/n2c(S)nnc2-c2ccccc2Cl)c1 [Compound 28] | 17 ± 1 | 14 ± 1 | 14.7 | competitive inhibitors | 21.1 ± 3.5 | –
32 | Oc1ccccc1/C=N/n1c(S)nnc1-c1ccccc1Cl [Compound 29] | – | 44.4 ± 2.3 | – | mixed mode | – | Ki′ (human DDC [1]; [6]): 208 ± 3 µM
33 | Oc1ccccc1/C=N/n1c(S)nnc1-c1ccccc1 [Compound 31] | 83 ± 12 | 33.4 ± 5 | 15.1 | competitive inhibitors | 31.7 ± 3.4 | –
34 | Oc1c(Br)cc(Br)cc1/C=N/n1c(S)nnc1-c1ccc(Cl)cc1Cl [Compound 32] | – | 4.5 ± 0.3 | – | mixed mode | – | Ki′ (human DDC [1]; [6]): 17 ± 0.2 µM
35 | Oc1ccc(/C=N/n2c(S)nnc2-c2ccc(Cl)cc2Cl)c(O)c1 [Compound 35] | 29 ± 2 | – | – | noncompetitive inhibitors | – | Ki′ (human DDC [1]; [6]): 127±16^b µM
36 | Oc1ccc(/C=N/n2cnnc2)cc1O [Compound 38] | 76 ± 5.8 | – | 22,6 | – | 24.5 ± 4.4 | Ki (human DDC [1]; [7]): 24.5 ± 1.4 µM
